The record followed here is US20260150841A1, “PYRIDINE COMPOUNDS FOR COMBATTING DIHYDROOROTATE-DEHYDROGENASE INHIBITOR-RESISTANT PHYTOPATHOGENIC FUNGI” (priority 2022, published 2026).

≈ marks a conversion by molar mass, not a printed value. Where two headings read alike, the source gives them in different places.

Holding throughout (format): cell-based
Test [1] concerns Botrytis cinerea mutant Y208H. As to the kind of experiment: Activity against Botrytis cinerea in the microtiter test, mutant Y208H. The settings on record: for IC50: Botrytis cinerea, MUTANTY208H, 168 h, read-out: Absolute IC50, Y208H, Botrytis cinerea mutant Y208H. An excerpt:
(§1) The active substances were formulated separately as a stock solution in dimethyl sulfoxide (DMSO) at a concentration of 10 000 ppm.
(§2) Spontaneous mutants were selected by plating out B. cinerea spores (in the range of 10^7-10^8) on DOB agar plates (3.4 g/l YNB (Becton Dickinson), 10 g/l Ammoniumsulfat, 40 g/l Glucose, 20 g/l Agar), amended with different lethal concentrations of active ingredient. After 7-14 days growing colonies were transferred to DOB agar plates, amended with the same lethal concentrations of active ingredient and then further propagated on Oatmeal agar medium (50 g/l Oatmeal agar (Sigma), 15 g/l Agar (Difco) for sensitivity testing.
(§3) Fungal strains used: • a) Botrytis cinerea (sensitive, wild-type) • b) Various mutants of Botrytis cinerea
(§4) The spores of Botrytis cinerea were harvested with a cotton swab from an Oatmeal agar plate (50 g/l Oatmealagar (Sigma, Art.O-3506), 15 g/l agar, (Difco) and this is dipped in 3 ml of double concentrated DOB-medium (3.4 g/l YNB (Becton Dickinson), 10 g/l Ammoniumsulfat, 40 g/l Glucose, adjusted to pH 7) and the spore suspension is adjusted to a spore density of 3.2×10^4 spores/ml. The compound solutions were diluted from stock solution in (dimethylsulfoxide) DMSO in several steps with sterile deionized water before use. High test concentrations were 50 mg/L (ppm) or 31 mg/L (ppm). Compound solutions were transferred into empty microplates and filled up with an equal amount of spore suspension.
(§5) The antifungal activity was determined by measuring the turbidity of a culture in 96-well microplates in the presence of test compounds after 7 days incubation at 620 nm. A blank value for each concentration (growth media+compound, without spores) are subtracted from the spore suspension. The relative antifungal activity was calculated by comparing the effect of the test compounds with the effect of a DMSO control The results are shown in Table IV (for compounds of general formula I.A), VI (for compounds of general formula I.B), and VIII (for compounds of general formula I.C).
(§6) A compound showing an IC50 (MUT) above the IC50 (WT) and showing an IC50 (MUT) to IC50 (WT) ratio being in a range above 100 is considered unsuitable (“I”) as DHODH inhibitor.
(§7) The absolute IC50-values (concentration of test compound resulting in 50% inhibition of fungal growth) were calculated from the resulting dose-response for each compound and strain.

Test [2] deals with Botrytis cinerea mutant H108P. As to the kind of experiment: Activity against Botrytis cinerea in the microtiter test, mutant H108P. The settings on record: for IC50: Botrytis cinerea, MUTANTH108P, 168 h, read-out: Absolute IC50, H108P, Botrytis cinerea mutant H108P.
Excerpt: as §1, §2, §3, §4, §5, §6, §7

The subject of test [3] is Botrytis cinerea mutant G111V. The test is described as follows: Activity against Botrytis cinerea in the microtiter test, mutant G111V. The conditions noted are these: for IC50: Botrytis cinerea, MUTANTG111V, 168 h, read-out: Absolute IC50, G111V, Botrytis cinerea mutant G111V.
Excerpt: as §1, §2, §3, §4, §5, §6, §7

In test [4] the test system is Botrytis cinerea (sensitive, wild-type). The test is described as follows: Activity against Botrytis cinerea in the microtiter test, wild type. The settings on record: turbidity at 620 nm after 7 days; for IC50: 168 h, read-out: Absolute IC50, wild type. The method, then:
as §1, §3, §4, §5, §7

The test system of test [5] is Botrytis cinerea mutant V195F. As to the kind of experiment: Activity against Botrytis cinerea in the microtiter test, mutant V195F. The conditions noted are these: for IC50: Botrytis cinerea, MUTANTV195F, 168 h, read-out: Absolute IC50, V195F, Botrytis cinerea mutant V195F.
Excerpt: as §1, §2, §3, §4, §5, §6, §7

The subject of test [6] is Botrytis cinerea mutant G111E. The test is described as follows: Activity against Botrytis cinerea in the microtiter test, mutant G111E. The settings on record: for IC50: Botrytis cinerea, MUTANTG111E, 168 h, read-out: Absolute IC50, G111E, Botrytis cinerea mutant G111E.
Excerpt: as §1, §2, §3, §4, §5, §6, §7

Setting [7] is: turbidity at 620 nm after 7 days.

“4-[6-(difluoromethyl)-5-methyl-3-pyridyl]-8-fluoro-2,2-dimethyl-1H-quinazoline [compound 44]”: in test [1] (Botrytis cinerea mutant Y208H, turbidity at 620 nm after 7 days), the “Absolute IC50, Y208H” value is given as 1.64 ppm. Also, in test [2] (Botrytis cinerea mutant H108P, turbidity at 620 nm after 7 days), the “Absolute IC50, H108P” value is on record as 0.50 ppm. The “Absolute IC50, G111V” value in test [3] (Botrytis cinerea mutant G111V, turbidity at 620 nm after 7 days) worked out at 0.73 ppm. Besides, the “Absolute IC50, wild type” value in test [4] was found to be 0.01 ppm. Also, the “Absolute IC50, V195F” value in test [5] (Botrytis cinerea mutant V195F, turbidity at 620 nm after 7 days) is listed as 0.03 ppm. In addition, the “Absolute IC50, G111E” value in test [6] (Botrytis cinerea mutant G111E, turbidity at 620 nm after 7 days) stood at 0.08 ppm.

With `Cc1cc(C2=NC3(CCC3)Oc3c2cccc3C(C)(C)C)cnc1C` [Ex-14], in test [1] ({}), the “Relative antifungal activity expressed as IC50, Y208H” value is listed as “AA AA AA AA AA”. Moreover, the “Relative antifungal activity expressed as IC50, G111V” value (“Relative antifungal activity … G111V” for short) in test [3] ({}) was “AA AA AA AA AA”. The “Relative antifungal activity expressed as IC50, V195F” value (“Relative antifungal activity … V195F” for short) in test [5] ({}) was “AA AA AA AA AA”. In test [6] ({}), the “Relative antifungal activity expressed as IC50, G111E” value (“Relative antifungal activity … G111E” for short) is listed as “AA AA AA AA AA”.

For `Cc1cc(C2=NC(C)(C)Oc3c2cccc3C(C)(C)C)cnc1C` [Ex-15], in test [3] ({}), the “Relative antifungal activity … G111V” value was “AA AA AA”. Further, in test [5] ({}), the “Relative antifungal activity … V195F” value is listed as “AA AA AA”.

As to `Cc1cc(C2=NC(C(C)(C)C)Oc3ccccc32)cnc1C` (stereo not drawn) [Ex-18], the “Relative antifungal activity … G111V” value in test [3] ({}) is listed as “AA AA AA AA”. The “Relative antifungal activity … V195F” value in test [5] ({}) was “AA AA AA AA”. Also, the “Relative antifungal activity … G111E” value in test [6] ({}) was “AA AA AA AA”.

In the case of `Cc1cc(C2=NC3(CCCC3)Oc3ccccc32)cnc1C(F)F` [Ex-24], the IC50 stood at 0.98 µg/mL (≈ 2.98 µM) in test [2] (setting [7]); 1.31 µg/mL (≈ 3.99 µM) in test [3] (setting [7]); 0.35 µg/mL (≈ 1.07 µM) in test [4]; 0.69 µg/mL (≈ 2.1 µM) in test [5] (setting [7]); 15.3 µg/mL (≈ 46.6 µM) in test [6] (setting [7]).

With `Cc1cc(C2=NC3(CCC3)Oc3ccccc32)cnc1C(F)F` [Ex-25, 4-[6-(difluoromethyl)-5-methyl-3-pyridyl]spiro[1,3-benzoxazine-2,1′-cyclobutane]], the IC50 amounted to 0.28 µg/mL (≈ 0.891 µM) in test [1] (setting [7]); 0.02 µg/mL (≈ 0.0636 µM) in test [2] (setting [7]); 0.03 µg/mL (≈ 0.0954 µM) in test [3] (setting [7]); 0.05 µg/mL (≈ 0.159 µM) in test [4]; 0.08 µg/mL (≈ 0.255 µM) in test [5] (setting [7]).

In the case of `Cc1cc(C2=NC3(COC3)Oc3ccccc32)cnc1C` [Ex-26], the “Relative antifungal activity … G111V” value in test [3] ({}) is listed as “AA AA AA AA”. Further, the “Relative antifungal activity … V195F” value in test [5] ({}) was “AA AA AA AA”. The “Relative antifungal activity … G111E” value in test [6] ({}) is listed as “AA AA AA AA”.

On to `Cc1cc(C2=NC3(CCC3)Oc3c(F)cccc32)cnc1C` [Ex-29], for which the IC50 in test [1] (setting [7]) amounted to 0.93 µg/mL (≈ 3.14 µM); in test [2] (setting [7]), 0.02 µg/mL (≈ 0.0675 µM); in test [3] (setting [7]), 0.04 µg/mL (≈ 0.135 µM); in test [4] (Botrytis cinerea) it was 0.02 µg/mL (≈ 0.0675 µM); in test [5] (setting [7]) it was 0.02 µg/mL (≈ 0.0675 µM); in test [6] (setting [7]), 2.34 µg/mL (≈ 7.9 µM).

For `Cc1cc(C2=NC3(CCC3)Oc3ccccc32)cnc1C` [Ex-32], the IC50 in test [1] (setting [7]) was 1.23 µg/mL (≈ 4.42 µM); in test [4] (Botrytis cinerea) it was 0.12 µg/mL (≈ 0.431 µM). Moreover, the “Absolute IC50, H108P” value in test [2] ({}) is recorded as 0.07 ppm. For the same compound, the “Absolute IC50, G111V” value in test [3] ({}) came out at 2.85 ppm. Further, the “Absolute IC50, V195F” value in test [5] ({}) is 0.13 ppm. Also, in test [6] ({}), the “Absolute IC50, G111E” value turned out to be 2.34 ppm.

Regarding `COc1ccc2c(c1)OC1(CCC1)N=C2c1cnc(C(F)F)c(C)c1` [Ex-37], the IC50 in test [2] (setting [7]) was 0.06 µg/mL (≈ 0.174 µM); in test [3] (setting [7]), 0.09 µg/mL (≈ 0.261 µM); in test [4] it was 0.03 µg/mL (≈ 0.0871 µM); in test [5] (setting [7]), 0.11 µg/mL (≈ 0.319 µM); in test [6] (setting [7]), 0.54 µg/mL (≈ 1.57 µM).

On to `Cc1cc(C2=NC(C)(C)Nc3ccccc32)cnc1C` [compound 39], for which the “Relative antifungal activity … G111V” value in test [3] ({}) is “AA AA AA AA”. Moreover, the “Relative antifungal activity … V195F” value in test [5] ({}) is reported as “AA AA AA AA”. For the same compound, the “Relative antifungal activity … G111E” value in test [6] ({}) is on record as “AA AA AA AA”.

Take `Cc1ccc(S(=O)(=O)N2c3ccccc3C(c3cnc(C)c(C)c3)=NC2(C)C)cc1` [compound 42]: the “Relative antifungal activity … G111V” value in test [3] ({}) is listed as “AA AA AA AA”. Also, in test [5] ({}), the “Relative antifungal activity … V195F” value is “AA AA AA AA”. In addition, the “Relative antifungal activity … G111E” value in test [6] ({}) is reported as “AA AA AA AA”.

In the case of `CCN1c2c(F)cccc2C(c2cnc(C(F)F)c(C)c2)=NC1(C)C` [compound 45], the IC50 in test [1] (setting [7]) amounted to 0.27 µg/mL (≈ 0.777 µM); in test [2] (setting [7]), 0.4 µg/mL (≈ 1.15 µM); in test [3] (setting [7]), 0.96 µg/mL (≈ 2.76 µM); in test [4] it was 0.01 µg/mL (≈ 0.0288 µM); in test [5] (setting [7]), 0.02 µg/mL (≈ 0.0576 µM); in test [6] (setting [7]) it was 0.57 µg/mL (≈ 1.64 µM).
